From patent publication US10052320B2, “Substituted quinoxalines as FGFR kinase inhibitors” (ASTEX THERAPEUTICS LIMITED, priority 2011, dated 2018)
Each block holds one compound with its values, some of them ahead of it.

Experiments:
FGFR2 (h) = FGFR2 (h) (Homo sapiens, UniProt P21802); experiment: FGFR2 (enzymatic assay), TR-FRET; assay type: biochemical; conditions: read-out: FGFR 2 pIC50 (converted)
Experimental: In a final reaction volume of 30 μL, FGFR2 (h) (150 ng/ml) was incubated with 50 mM HEPES pH 7.5, 6 mM MnCl2, 1 mM DTT, 0.1 mM Na3VO4, 0.01% Triton-X-100, 500 nM Btn-Flt3 and 0.4 μM ATP in the presence of compound (1% DMSO final). […] Time-Resolved Fluorescence Resonance Energy Transfer (TR-FRET) signal (ex340 nm. Em 620 nm, em 655 nm) was measured afterwards and results are expressed in (Relative Fluorescence Units).

[1] = biological target: Ba/F3-FGFR1-transfected cells (Homo sapiens, UniProt P11362); experiment: Ba/F3-FGFR1 (minus IL3) cellular proliferation assay, Alamar Blue; assay type: cell-based; conditions: for BAF3-FGFR 1 (MIN IL3) 96 well pIC50: minus IL3, 96 well; for BAF3-FGFR 1 (MIN IL3) 384 well pIC50: minus IL3, 384 well
Chain of Ba/F3-FGFR1-transfected cells (P11362 whole entry, change not shown): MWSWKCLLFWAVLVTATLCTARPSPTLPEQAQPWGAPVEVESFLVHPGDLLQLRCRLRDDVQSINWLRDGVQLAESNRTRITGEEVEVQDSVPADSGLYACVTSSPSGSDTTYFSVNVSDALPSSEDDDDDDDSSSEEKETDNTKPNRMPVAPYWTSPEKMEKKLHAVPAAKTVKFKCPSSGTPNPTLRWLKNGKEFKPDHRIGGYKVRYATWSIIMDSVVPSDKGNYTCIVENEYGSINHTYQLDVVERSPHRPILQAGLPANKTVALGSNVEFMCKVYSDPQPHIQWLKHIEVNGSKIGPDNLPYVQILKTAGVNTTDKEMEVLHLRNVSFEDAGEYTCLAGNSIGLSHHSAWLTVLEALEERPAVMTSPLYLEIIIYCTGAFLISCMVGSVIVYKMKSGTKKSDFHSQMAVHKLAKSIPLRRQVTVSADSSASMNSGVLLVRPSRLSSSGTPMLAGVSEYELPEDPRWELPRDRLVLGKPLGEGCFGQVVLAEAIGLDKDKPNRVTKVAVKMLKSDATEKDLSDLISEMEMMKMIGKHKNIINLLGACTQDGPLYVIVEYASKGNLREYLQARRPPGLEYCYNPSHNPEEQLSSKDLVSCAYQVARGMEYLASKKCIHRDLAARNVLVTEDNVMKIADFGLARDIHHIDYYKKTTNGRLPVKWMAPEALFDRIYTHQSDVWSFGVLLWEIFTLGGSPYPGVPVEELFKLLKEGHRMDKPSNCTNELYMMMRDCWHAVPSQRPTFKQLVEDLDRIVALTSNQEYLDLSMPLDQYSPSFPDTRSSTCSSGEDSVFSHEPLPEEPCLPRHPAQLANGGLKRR
How it was run: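 Cells (20000 per well in 384-well format or 10000 per well in 96-well format) in phenol red-free RPMI-1640 with 10% FBS were exposed to compound in DMSO for 24 h at 37 °C, 5% CO2. Resazurin-based Alamar Blue was then added for 4 h, and fluorescence was read at ex 540/em 590 nm.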

[2] = biological target: Ba/F3-FGFR4-transfected cells (Homo sapiens, UniProt P22455); experiment: Ba/F3-FGFR4 cellular proliferation assay, Alamar Blue; assay type: cell-based
Chain of Ba/F3-FGFR4-transfected cells (P22455 whole entry, change not shown): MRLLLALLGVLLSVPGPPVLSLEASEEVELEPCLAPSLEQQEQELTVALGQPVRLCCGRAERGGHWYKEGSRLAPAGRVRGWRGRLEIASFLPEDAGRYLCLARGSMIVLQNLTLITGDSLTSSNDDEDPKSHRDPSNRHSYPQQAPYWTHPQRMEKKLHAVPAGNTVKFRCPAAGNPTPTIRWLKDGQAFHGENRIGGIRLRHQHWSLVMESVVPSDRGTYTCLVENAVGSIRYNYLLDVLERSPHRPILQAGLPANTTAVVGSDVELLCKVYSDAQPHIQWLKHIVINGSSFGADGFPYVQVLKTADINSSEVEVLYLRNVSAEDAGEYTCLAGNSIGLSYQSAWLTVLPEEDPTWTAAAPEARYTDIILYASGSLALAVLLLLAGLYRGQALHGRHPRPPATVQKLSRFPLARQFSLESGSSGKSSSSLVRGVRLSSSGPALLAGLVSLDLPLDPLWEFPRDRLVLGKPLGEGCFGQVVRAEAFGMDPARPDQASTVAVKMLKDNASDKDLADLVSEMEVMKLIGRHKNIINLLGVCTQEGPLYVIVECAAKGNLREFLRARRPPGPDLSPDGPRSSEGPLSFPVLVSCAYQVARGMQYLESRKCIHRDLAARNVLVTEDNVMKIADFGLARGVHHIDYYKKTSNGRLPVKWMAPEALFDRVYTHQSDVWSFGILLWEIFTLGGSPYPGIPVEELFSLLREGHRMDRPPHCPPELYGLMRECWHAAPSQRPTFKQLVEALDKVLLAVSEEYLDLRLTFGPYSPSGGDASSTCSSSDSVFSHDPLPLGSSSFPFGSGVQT
How it was run: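 Ba/F3 cells transfected with FGFR4, 20000 cells/well in phenol red-free RPMI-1640 with 10% FBS, were exposed to compound for 24 h at 37° C, 5% CO2. Alamar Blue (resazurin) was then added for 4 h, and fluorescence was read at ex 540/em 590 nm.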

[3] = biological target: Ba/F3-KDR-transfected cells (Homo sapiens, UniProt P35968); experiment: Ba/F3-KDR (minus IL3) cellular proliferation assay, Alamar Blue; assay type: cell-based; conditions: minus IL3
Chain of Ba/F3-KDR-transfected cells (P35968 whole entry, change not shown): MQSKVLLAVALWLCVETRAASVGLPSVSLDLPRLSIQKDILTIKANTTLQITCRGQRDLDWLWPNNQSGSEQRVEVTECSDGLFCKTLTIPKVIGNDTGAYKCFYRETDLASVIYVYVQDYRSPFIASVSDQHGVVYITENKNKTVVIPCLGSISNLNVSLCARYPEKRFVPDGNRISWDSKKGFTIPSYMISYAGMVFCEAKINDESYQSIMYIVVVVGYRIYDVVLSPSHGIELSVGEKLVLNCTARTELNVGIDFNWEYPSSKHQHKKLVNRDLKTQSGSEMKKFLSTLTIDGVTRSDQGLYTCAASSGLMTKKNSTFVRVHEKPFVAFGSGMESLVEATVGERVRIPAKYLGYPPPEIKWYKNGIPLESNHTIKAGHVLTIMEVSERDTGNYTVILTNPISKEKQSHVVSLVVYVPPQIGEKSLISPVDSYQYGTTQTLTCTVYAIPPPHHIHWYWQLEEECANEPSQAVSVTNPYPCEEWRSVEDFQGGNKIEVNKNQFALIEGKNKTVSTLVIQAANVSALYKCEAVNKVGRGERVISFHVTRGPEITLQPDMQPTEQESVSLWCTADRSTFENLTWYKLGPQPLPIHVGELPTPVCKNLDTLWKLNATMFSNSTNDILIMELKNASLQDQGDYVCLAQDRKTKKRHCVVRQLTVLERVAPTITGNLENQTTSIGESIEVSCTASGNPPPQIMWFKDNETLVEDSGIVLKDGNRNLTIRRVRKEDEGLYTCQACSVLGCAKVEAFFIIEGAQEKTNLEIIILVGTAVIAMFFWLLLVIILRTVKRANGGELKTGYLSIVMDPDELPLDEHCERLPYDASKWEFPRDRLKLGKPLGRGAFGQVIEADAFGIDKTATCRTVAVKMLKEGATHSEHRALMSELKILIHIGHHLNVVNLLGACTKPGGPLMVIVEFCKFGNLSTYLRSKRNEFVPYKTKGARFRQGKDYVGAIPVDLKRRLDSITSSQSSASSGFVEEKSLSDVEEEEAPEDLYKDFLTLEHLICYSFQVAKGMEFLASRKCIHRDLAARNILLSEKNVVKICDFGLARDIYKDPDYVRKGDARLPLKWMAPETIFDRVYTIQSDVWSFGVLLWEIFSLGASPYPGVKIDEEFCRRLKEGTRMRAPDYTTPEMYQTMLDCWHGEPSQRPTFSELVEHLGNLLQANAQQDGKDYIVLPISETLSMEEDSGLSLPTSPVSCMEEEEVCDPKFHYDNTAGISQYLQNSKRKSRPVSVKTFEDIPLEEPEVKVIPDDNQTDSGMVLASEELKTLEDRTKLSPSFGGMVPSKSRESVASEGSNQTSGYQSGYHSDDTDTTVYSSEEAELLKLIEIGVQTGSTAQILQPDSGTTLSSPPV
How it was run: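 Ba/F3-KDR cells in phenol red free RPMI-1640 with 10% FBS were exposed to compound for 24 h at 37 °C, 5% CO2. Alamar Blue (resazurin) was then added for 4 h and fluorescence read at ex 540/em 590 nm. The counterscreen ran identically with 10 ng/ml murine IL3.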

Chain of FGFR2 (h) (P21802 22-821): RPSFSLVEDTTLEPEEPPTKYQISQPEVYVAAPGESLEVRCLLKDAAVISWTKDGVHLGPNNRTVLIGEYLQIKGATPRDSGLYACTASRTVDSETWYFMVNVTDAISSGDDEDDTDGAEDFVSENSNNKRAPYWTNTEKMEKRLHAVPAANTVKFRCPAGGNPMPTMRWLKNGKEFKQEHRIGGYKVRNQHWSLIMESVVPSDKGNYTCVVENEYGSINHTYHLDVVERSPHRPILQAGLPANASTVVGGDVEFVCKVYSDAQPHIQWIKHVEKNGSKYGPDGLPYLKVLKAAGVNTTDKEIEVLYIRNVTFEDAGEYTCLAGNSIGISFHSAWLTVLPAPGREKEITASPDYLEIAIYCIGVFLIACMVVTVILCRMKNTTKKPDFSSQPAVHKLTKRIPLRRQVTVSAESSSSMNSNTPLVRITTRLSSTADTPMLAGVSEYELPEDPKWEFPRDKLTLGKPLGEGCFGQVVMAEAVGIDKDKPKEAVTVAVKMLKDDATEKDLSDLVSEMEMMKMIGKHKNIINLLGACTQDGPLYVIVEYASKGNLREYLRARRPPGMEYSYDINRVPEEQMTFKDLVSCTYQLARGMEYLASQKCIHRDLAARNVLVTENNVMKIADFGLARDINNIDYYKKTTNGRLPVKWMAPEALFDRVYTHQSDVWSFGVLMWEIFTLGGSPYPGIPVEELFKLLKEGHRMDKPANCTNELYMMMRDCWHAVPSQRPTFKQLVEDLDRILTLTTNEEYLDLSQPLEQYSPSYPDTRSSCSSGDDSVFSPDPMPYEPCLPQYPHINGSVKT

SMILES: COc1cc(OC)cc(N(CC2CC2)c2ccc3ncc(-c4nnn[nH]4)nc3c2)c1 [Compound 41]
IC50 (FGFR2 (h)): 0.178 µM | BAF3-FGFR 1 (MIN IL3) 96 well pIC50 [1]: <5 | BAF3-FGFR 1 (MIN IL3) 384 well pIC50 [1]: <5 | BAF3-FGFR4 pIC50 [2]: <5 | BAF3-KDR (MIN IL3) 384 well pIC50 [3]: <5

SMILES: COc1cc(OC)cc(N(CCCO)c2ccc3ncc(-c4ccc(N5CCNCC5)nc4)nc3c2)c1 [Compound 48]
IC50 (FGFR2 (h)): 0.00407 µM | BAF3-FGFR 1 (MIN IL3) 384 well pIC50 [1]: 6.92 | BAF3-FGFR4 pIC50 [2]: 6.5 | BAF3-KDR (MIN IL3) 384 well pIC50 [3]: 5.39

SMILES: COc1cc(OC)cc(N(CC2CC2)c2ccc3ncc(-n4cncn4)nc3c2)c1 [Compound 50]
IC50 (FGFR2 (h)): ~0.708 µM | BAF3-FGFR 1 (MIN IL3) 96 well pIC50 [1]: <5 | BAF3-FGFR 1 (MIN IL3) 384 well pIC50 [1]: <5 | BAF3-FGFR4 pIC50 [2]: <5 | BAF3-KDR (MIN IL3) 96 well pIC50 [3]: <5 | BAF3-KDR (MIN IL3) 384 well pIC50 [3]: <5

SMILES: COc1cc(OC)cc(N(Cc2cccc(CN)n2)c2ccc3ncc(-c4ccc(N)nc4)nc3c2)c1 [Compound 51]
IC50 (FGFR2 (h)): 0.00891 µM | BAF3-FGFR 1 (MIN IL3) 384 well pIC50 [1]: 5.88 | BAF3-FGFR4 pIC50 [2]: 5.7 | BAF3-KDR (MIN IL3) 384 well pIC50 [3]: 5.04

SMILES: COc1cc(OC)cc(N(CC2CC2)c2ccc3ncc(-c4cnco4)nc3c2)c1 [Compound 55]
IC50 (FGFR2 (h)): 0.0479 µM | BAF3-FGFR 1 (MIN IL3) 96 well pIC50 [1]: 5.37 | BAF3-FGFR 1 (MIN IL3) 384 well pIC50 [1]: <5 | BAF3-FGFR4 pIC50 [2]: <5 | BAF3-KDR (MIN IL3) 96 well pIC50 [3]: <5 | BAF3-KDR (MIN IL3) 384 well pIC50 [3]: <5

SMILES: COc1cc(OC)cc(N(CC2CC2)c2ccc3ncc(-c4ccn[nH]4)nc3c2)c1 [Compound 58]
IC50 (FGFR2 (h)): 0.537 µM | BAF3-FGFR 1 (MIN IL3) 96 well pIC50 [1]: <5 | BAF3-FGFR4 pIC50 [2]: <5 | BAF3-KDR (MIN IL3) 384 well pIC50 [3]: <5

SMILES: COc1cc(OC)cc(N(CC2CC2)c2ccc3ncc(-c4nccn4C)nc3c2)c1 [Compound 60]
IC50 (FGFR2 (h)): 1.41 µM | BAF3-FGFR 1 (MIN IL3) 96 well pIC50 [1]: <5 | BAF3-FGFR 1 (MIN IL3) 384 well pIC50 [1]: <5 | BAF3-FGFR4 pIC50 [2]: <5 | BAF3-KDR (MIN IL3) 384 well pIC50 [3]: <5

SMILES: COc1cc(OC)cc(N(CC2CC2)c2ccc3ncc(-n4nccc4C)nc3c2)c1 [Compound 62]
IC50 (FGFR2 (h)): > 1 µM | BAF3-FGFR 1 (MIN IL3) 96 well pIC50 [1]: <5 | BAF3-FGFR 1 (MIN IL3) 384 well pIC50 [1]: <5 | BAF3-FGFR4 pIC50 [2]: <5 | BAF3-KDR (MIN IL3) 384 well pIC50 [3]: <5

SMILES: CCOC(=O)c1ncn(-c2cnc3ccc(N(CC4CC4)c4cc(OC)cc(OC)c4)cc3n2)c1C [Compound 65]
IC50 (FGFR2 (h)): > 1 µM | BAF3-FGFR 1 (MIN IL3) 96 well pIC50 [1]: <5 | BAF3-FGFR 1 (MIN IL3) 384 well pIC50 [1]: <5 | BAF3-FGFR4 pIC50 [2]: <5 | BAF3-KDR (MIN IL3) 96 well pIC50 [3]: <5 | BAF3-KDR (MIN IL3) 384 well pIC50 [3]: <5

SMILES: COc1cc(OC)cc(N(CCCO)c2ccc3ncc(-c4ccnc(N)c4)nc3c2)c1 [Compound 66]
IC50 (FGFR2 (h)): 0.00407 µM | BAF3-FGFR 1 (MIN IL3) 384 well pIC50 [1]: 7.16 | BAF3-FGFR4 pIC50 [2]: 6.3 | BAF3-KDR (MIN IL3) 384 well pIC50 [3]: 5.52

SMILES: COc1cc(OC)cc(N(CC2CC2)c2ccc3ncc(-c4cn[nH]n4)nc3c2)c1 [Compound 69]
IC50 (FGFR2 (h)): 0.166 µM | BAF3-FGFR 1 (MIN IL3) 96 well pIC50 [1]: 5.22 | BAF3-FGFR 1 (MIN IL3) 384 well pIC50 [1]: 5.01 | BAF3-FGFR4 pIC50 [2]: <5 | BAF3-KDR (MIN IL3) 96 well pIC50 [3]: <5 | BAF3-KDR (MIN IL3) 384 well pIC50 [3]: <5

SMILES: COc1cc(OC)cc(N(CC(O)CO)c2ccc3ncc(-c4ccc(N)nc4)nc3c2)c1 (stereo not shown) [Compound 74]
IC50 (FGFR2 (h)): 0.0115 µM | BAF3-FGFR 1 (MIN IL3) 384 well pIC50 [1]: 6.62 | BAF3-FGFR4 pIC50 [2]: 6.1 | BAF3-KDR (MIN IL3) 384 well pIC50 [3]: <5

SMILES: CNC(=O)OCCN(c1cc(OC)cc(OC)c1)c1ccc2ncc(-c3ccc(NC(=O)OC(C)(C)C)nc3)nc2c1 [Compound 80]
IC50 (FGFR2 (h)): 0.912 µM | BAF3-FGFR 1 (MIN IL3) 384 well pIC50 [1]: 5.08 | BAF3-FGFR4 pIC50 [2]: <5 | BAF3-KDR (MIN IL3) 384 well pIC50 [3]: <5

SMILES: CNCCN(c1cc(OC)cc(OC)c1)c1ccc2ncc(-c3ccc(NC(=O)OC(C)(C)C)nc3)nc2c1 [Compound 81]
IC50 (FGFR2 (h)): 0.0055 µM | BAF3-FGFR 1 (MIN IL3) 384 well pIC50 [1]: 5.66 | BAF3-FGFR4 pIC50 [2]: 5.9 | BAF3-KDR (MIN IL3) 384 well pIC50 [3]: 5.62

Further lines, results first:

IC50 (FGFR2 (h)): 0.229 µM | BAF3-FGFR 1 (MIN IL3) 96 well pIC50 [1]: 5.03 | BAF3-FGFR 1 (MIN IL3) 384 well pIC50 [1]: <5 | BAF3-FGFR4 pIC50 [2]: <5 | BAF3-KDR (MIN IL3) 96 well pIC50 [3]: <5 | BAF3-KDR (MIN IL3) 384 well pIC50 [3]: <5
SMILES: COc1cc(OC)cc(N(CC2CC2)c2ccc3ncc(-c4nnn(C)n4)nc3c2)c1 [Compound 82]

IC50 (FGFR2 (h)): > 1 µM | BAF3-FGFR 1 (MIN IL3) 96 well pIC50 [1]: <5 | BAF3-FGFR 1 (MIN IL3) 384 well pIC50 [1]: <5 | BAF3-FGFR4 pIC50 [2]: <5 | BAF3-KDR (MIN IL3) 96 well pIC50 [3]: <5 | BAF3-KDR (MIN IL3) 384 well pIC50 [3]: <5
SMILES: COc1cc(OC)cc(N(CC2CC2)c2ccc3ncc(-c4nnnn4C)nc3c2)c1 [Compound 83]

IC50 (FGFR2 (h)): ~0.912 µM | BAF3-FGFR 1 (MIN IL3) 384 well pIC50 [1]: <5 | BAF3-FGFR4 pIC50 [2]: <5 | BAF3-KDR (MIN IL3) 384 well pIC50 [3]: <5
SMILES: COc1cc(OC)cc(N(CC2CC2)c2ccc3ncc(C(=O)NCCN4CCOCC4)nc3c2)c1 [Compound 96]

IC50 (FGFR2 (h)): 2 µM | BAF3-FGFR 1 (MIN IL3) 384 well pIC50 [1]: <5 | BAF3-FGFR4 pIC50 [2]: <5 | BAF3-KDR (MIN IL3) 384 well pIC50 [3]: <5
SMILES: COc1cc(OC)cc(N(CC2CC2)c2ccc3ncc(-c4nccs4)nc3c2)c1 [Compound 97]

IC50 (FGFR2 (h)): 0.676 µM | BAF3-FGFR 1 (MIN IL3) 384 well pIC50 [1]: <5 | BAF3-FGFR4 pIC50 [2]: <5 | BAF3-KDR (MIN IL3) 384 well pIC50 [3]: <5
SMILES: COc1cc(OC)cc(N(CC2CC2)c2ccc3ncc(Nc4nccs4)nc3c2)c1 [Compound 98]

IC50 (FGFR2 (h)): > 1 µM | BAF3-FGFR 1 (MIN IL3) 96 well pIC50 [1]: <5 | BAF3-FGFR 1 (MIN IL3) 384 well pIC50 [1]: <5 | BAF3-FGFR4 pIC50 [2]: <5 | BAF3-KDR (MIN IL3) 384 well pIC50 [3]: <5
SMILES: COc1cc(OC)cc(N(CC2CC2)c2ccc3ncc(C(=O)NCc4ccc(F)cc4)nc3c2)c1 [Compound 101]

IC50 (FGFR2 (h)): > 1 µM | BAF3-FGFR 1 (MIN IL3) 96 well pIC50 [1]: <5 | BAF3-FGFR 1 (MIN IL3) 384 well pIC50 [1]: <5 | BAF3-FGFR4 pIC50 [2]: <5 | BAF3-KDR (MIN IL3) 384 well pIC50 [3]: <5
SMILES: COc1cc(OC)cc(N(CC2CC2)c2ccc3ncc(Nc4nncs4)nc3c2)c1 [Compound 102]

IC50 (FGFR2 (h)): > 1 µM | BAF3-FGFR 1 (MIN IL3) 96 well pIC50 [1]: <5 | BAF3-FGFR 1 (MIN IL3) 384 well pIC50 [1]: <5 | BAF3-FGFR4 pIC50 [2]: <5 | BAF3-KDR (MIN IL3) 384 well pIC50 [3]: <5
SMILES: COc1cc(OC)cc(N(CC2CC2)c2ccc3ncc(-c4cccn4C)nc3c2)c1 [Compound 103]
